Key:
Settings in all cases: exposure time: 72 h
[1] = test system: E31 (patient-derived glioblastoma stem cells of proneural subtype); assay: surviving fraction (nuclei count normalised to DMSO); higher = more cells surviving (less toxic)
[2] = test system: FT3469 (normal neural stem cell line); assay: as above
[3] = test system: E34 (patient-derived glioblastoma stem cells of proneural subtype); assay: as above
[4] = test system: E21 (patient-derived glioblastoma stem cells of mesenchymal subtype); assay: as above
[5] = test system: E28 (patient-derived glioblastoma stem cells of classical subtype); assay: as above
[6] = test system: E57 (patient-derived glioblastoma stem cells of mesenchymal subtype); assay: as above
[7] = test system: E13 (patient-derived glioblastoma stem cells of classical subtype); assay: as above
[8] = test system: E31; assay: phenotypic distance (Euclidean, principal components) from DMSO controls (arbitrary units); higher = stronger morphological change
[9] = test system: FT3469; assay: as above
[10] = test system: E34; assay: as above
[11] = test system: E21; assay: as above
[12] = test system: E28; assay: as above
[13] = test system: E57; assay: as above
[14] = test system: E13; assay: as above
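For phenotypic distance (Euclidean, principal components) from DMSO controls in this document: cell Painting imaging in 384-well plates, CellProfiler features reduced to at least 20 principal components, Euclidean distance versus same-plate DMSO vehicle wells (0.1% v/v), median over six images per well.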
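For surviving fraction (nuclei count normalised to DMSO) in this document: nuclei counted by high-content imaging of Hoechst-stained cells in laminin-coated 384-well plates, relative to 0.1% DMSO vehicle wells, with staurosporine as cell-death control.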

O=c1c2ccccc2[se]n1-c1ccccc1 [Ebselen]
Settings | phenotypic distance | surviving fraction
[1], 4.11523 nM | – | 0.993
[1], 12.34567901 nM | – | 0.922
[1], 37.037 nM | – | 1.2
[1], 111.1111111 nM | – | 1.12
[1], 333.333 nM | – | 1.13
[1], 1000 nM | – | 0.905
[1], 3000 nM | – | 0.127
[2], 4.11523 nM | – | 1.14
[2], 12.34567901 nM | – | 1.14
[2], 37.037 nM | – | 1.11
[2], 111.1111111 nM | – | 1.15
[2], 333.333 nM | – | 1.32
[2], 1000 nM | – | 0.997
[2], 3000 nM | – | 0.189
[3], 4.11523 nM | – | 0.901
[3], 12.34567901 nM | – | 1.1
[3], 37.037 nM | – | 0.955
[3], 111.1111111 nM | – | 1
[3], 333.333 nM | – | 1.04
[3], 1000 nM | – | 1.05
[3], 3000 nM | – | 0.512
[4], 4.11523 nM | – | 1.06
[4], 12.34567901 nM | – | 1.15
[4], 37.037 nM | – | 1.11
[4], 111.1111111 nM | – | 1.08
[4], 333.333 nM | – | 1.1
[4], 1000 nM | – | 1.14
[4], 3000 nM | – | 0.582
[5], 4.11523 nM | – | 0.974
[5], 12.34567901 nM | – | 1.18
[5], 37.037 nM | – | 1.14
[5], 111.1111111 nM | – | 1.12
[5], 333.333 nM | – | 1.15
[5], 1000 nM | – | 1.1
[5], 3000 nM | – | 0.0788
[6], 4.11523 nM | – | 1.04
[6], 12.34567901 nM | – | 0.962
[6], 37.037 nM | – | 1.01
[6], 111.1111111 nM | – | 1.05
[6], 333.333 nM | – | 0.995
[6], 1000 nM | – | 1.04
[6], 3000 nM | – | 0.343
[7], 4.11523 nM | – | 1.18
[7], 12.34567901 nM | – | 1.04
[7], 37.037 nM | – | 1.05
[7], 111.1111111 nM | – | 1.07
[7], 333.333 nM | – | 1.16
[7], 1000 nM | – | 1.11
[7], 3000 nM | – | 0.579
[8], 4.11523 nM | 0.71 | –
[8], 12.34567901 nM | 0.778 | –
[8], 37.037 nM | 0.875 | –
[8], 111.1111111 nM | 0.398 | –
[8], 333.333 nM | 0.33 | –
[8], 1000 nM | 0.763 | –
[8], 3000 nM | 3.3 | –
[9], 4.11523 nM | 0.678 | –
[9], 12.34567901 nM | 0.843 | –
[9], 37.037 nM | 0.785 | –
[9], 111.1111111 nM | 0.587 | –
[9], 333.333 nM | 1.06 | –
[9], 1000 nM | 0.639 | –
[9], 3000 nM | 4.47 | –
[10], 4.11523 nM | 0.415 | –
[10], 12.34567901 nM | 0.549 | –
[10], 37.037 nM | 0.806 | –
[10], 111.1111111 nM | 0.859 | –
[10], 333.333 nM | 0.532 | –
[10], 1000 nM | 1.03 | –
[10], 3000 nM | 1.91 | –
[11], 4.11523 nM | 0.63 | –
[11], 12.34567901 nM | 1.29 | –
[11], 37.037 nM | 0.667 | –
[11], 111.1111111 nM | 1.02 | –
[11], 333.333 nM | 0.791 | –
[11], 1000 nM | 0.556 | –
[11], 3000 nM | 1.89 | –
[12], 4.11523 nM | 0.754 | –
[12], 12.34567901 nM | 1.01 | –
[12], 37.037 nM | 0.601 | –
[12], 111.1111111 nM | 0.529 | –
[12], 333.333 nM | 0.764 | –
[12], 1000 nM | 0.79 | –
[12], 3000 nM | 2.56 | –
[13], 4.11523 nM | 0.316 | –
[13], 12.34567901 nM | 0.564 | –
[13], 37.037 nM | 0.5 | –
[13], 111.1111111 nM | 0.407 | –
[13], 333.333 nM | 0.482 | –
[13], 1000 nM | 1 | –
[13], 3000 nM | 4.42 | –
[14], 4.11523 nM | 0.891 | –
[14], 12.34567901 nM | 0.779 | –
[14], 37.037 nM | 0.477 | –
[14], 111.1111111 nM | 0.532 | –
[14], 333.333 nM | 0.51 | –
[14], 1000 nM | 0.854 | –
[14], 3000 nM | 1.59 | –

COc1cc(NS(C)(=O)=O)ccc1Nc1c2ccccc2nc2ccccc12 [Amsacrine]
Settings | phenotypic distance | surviving fraction
[1], 4.1 nM | – | 0.573
[1], 12.3 nM | – | 0.509
[1], 37 nM | – | 0.314
[1], 111.1 nM | – | 0.247
[1], 333.3 nM | – | 0.288
[1], 1000 nM | – | 0.244
[1], 3000 nM | – | 0.0342
[2], 4.1 nM | – | 0.745
[2], 12.3 nM | – | 0.751
[2], 37 nM | – | 0.593
[2], 111.1 nM | – | 0.731
[2], 333.3 nM | – | 0.745
[2], 1000 nM | – | 0.645
[2], 3000 nM | – | 0.363
[3], 4.1 nM | – | 0.977
[3], 12.3 nM | – | 0.867
[3], 37 nM | – | 0.823
[3], 111.1 nM | – | 0.552
[3], 333.3 nM | – | 0.493
[3], 1000 nM | – | 0.484
[3], 3000 nM | – | 0.379
[4], 4.1 nM | – | 0.908
[4], 12.3 nM | – | 1.08
[4], 37 nM | – | 0.72
[4], 111.1 nM | – | 0.45
[4], 333.3 nM | – | 0.388
[4], 1000 nM | – | 0.197
[4], 3000 nM | – | 0.0813
[5], 4.1 nM | – | 0.875
[5], 12.3 nM | – | 0.529
[5], 37 nM | – | 0.427
[5], 111.1 nM | – | 0.474
[5], 333.3 nM | – | 0.374
[5], 1000 nM | – | 0.467
[5], 3000 nM | – | 0.126
[6], 4.1 nM | – | 0.935
[6], 12.3 nM | – | 0.759
[6], 37 nM | – | 0.484
[6], 111.1 nM | – | 0.21
[6], 333.3 nM | – | 0.192
[6], 1000 nM | – | 0.161
[6], 3000 nM | – | 0.0825
[7], 4.1 nM | – | 0.946
[7], 12.3 nM | – | 0.807
[7], 37 nM | – | 0.489
[7], 111.1 nM | – | 0.414
[7], 333.3 nM | – | 0.414
[7], 1000 nM | – | 0.387
[7], 3000 nM | – | 0.132
[8], 4.1 nM | 1.63 | –
[8], 12.3 nM | 3.02 | –
[8], 37 nM | 3.7 | –
[8], 111.1 nM | 3.82 | –
[8], 333.3 nM | 2.97 | –
[8], 1000 nM | 3 | –
[8], 3000 nM | 6.79 | –
[9], 4.1 nM | 0.866 | –
[9], 12.3 nM | 1.42 | –
[9], 37 nM | 1.99 | –
[9], 111.1 nM | 2.25 | –
[9], 333.3 nM | 2.14 | –
[9], 1000 nM | 2.2 | –
[9], 3000 nM | 3.03 | –
[10], 4.1 nM | 0.614 | –
[10], 12.3 nM | 1.45 | –
[10], 37 nM | 2.78 | –
[10], 111.1 nM | 6.15 | –
[10], 333.3 nM | 5.83 | –
[10], 1000 nM | 4.78 | –
[10], 3000 nM | 3.81 | –
[11], 4.1 nM | 0.893 | –
[11], 12.3 nM | 1.83 | –
[11], 37 nM | 2.5 | –
[11], 111.1 nM | 6.57 | –
[11], 333.3 nM | 6.68 | –
[11], 1000 nM | 5.68 | –
[11], 3000 nM | 7.87 | –
[12], 4.1 nM | 1.15 | –
[12], 12.3 nM | 2.1 | –
[12], 37 nM | 3.15 | –
[12], 111.1 nM | 2.93 | –
[12], 333.3 nM | 3.24 | –
[12], 1000 nM | 3.28 | –
[12], 3000 nM | 4.07 | –
[13], 4.1 nM | 0.741 | –
[13], 12.3 nM | 2.05 | –
[13], 37 nM | 4.75 | –
[13], 111.1 nM | 10.6 | –
[13], 333.3 nM | 10.7 | –
[13], 1000 nM | 8.66 | –
[13], 3000 nM | 6.92 | –
[14], 4.1 nM | 0.565 | –
[14], 12.3 nM | 1.43 | –
[14], 37 nM | 4.51 | –
[14], 111.1 nM | 6.51 | –
[14], 333.3 nM | 6.57 | –
[14], 1000 nM | 6.84 | –
[14], 3000 nM | 7.75 | –
